# Data reported in patent publication US11779014B2, “Adjuvants” (SYNGENTA PARTICIPATIONS AG, priority 2017, dated 2023).
# Experiments:
# [1] = test system: Chenopodium album (CHEAL); test: Glasshouse adjuvancy test for nicosulfuron on CHEAL; type: in vivo
# Protocol: (§1) The biological efficacies of blends of an oleyl 20 ethoxylate uncapped surfactant with an oleyl 20 ethoxylate surfactant with an n-hexyl ether cap as adjuvants for the herbicide nicosulfuron were tested in a glasshouse against three weed species sown into standard soil in pots and cultivated under controlled conditions in a glasshouse (24/18° C. day/night; 16 hours light; 65% humidity). Nicosulfuron was added to the spray tank as a standard WG (water dispersible granule) formulation. The plants were sprayed with nicosulfuron at rates of 15 or 60 grams of pesticide per hectare using a laboratory track sprayer which delivered the aqueous spray composition at a rate of 200 litres per hectare, using a flat fan nozzle (Teejet 11002VS) at 2 bar. The adjuvants were added to the spray solution at a total rate of 0.1 or 0.2% w/v in all cases and at extra lower rates for the oleyl 20EO alone and its 1:1 blend with the oleyl 20EO n-hexyl ether to show the dose response to these adjuvants. All spray solutions also contained 10% w/w of iso-propanol. The weed species and their BBCH growth stage at spraying were Chenopodium album (CHEAL; growth stage 15), Digitaria sanguinalis (DIGSA; growth stage 14), and Commelina benghalensis (COMBE; growth stage 14). Each spray test was replicated three times. The test plants were then grown in a glasshouse under controlled conditions (24/18° C. day/night; 16 hours light; 65% humidity) and watered twice a day. The efficacy of the herbicide was assessed visually and expressed as a percentage of the leaf area killed. Samples were assessed at a time period of 21 days following application. The following tables (3-8) show the effect of blends of the two surfactants at a total concentration of 0.2 and 0.1%. In each case the blends were 1:0, 3:1, 1:1, 1:3 and 0:1 w/w of oleyl 20EO:oleyl 20 EO n-hexyl ether.
# The biological efficacies of blends of oleyl 20 ethoxylate and oleyl 20EO ethoxylate with a benzoate cap as adjuvants for the herbicide nicosulfuron were tested in a glasshouse using the same method as for ‘Example 1’ but against just two weed species and with just 0.2% w/v total adjuvant concentration. The weed species and their BBCH growth stage at spraying HI were Chenopodium album (CHEAL; growth stage 13-15) and Digitaria sanguinalis (DIGSA; growth stage 14-22).
# The biological efficacies of 1:1 blends of an oleyl 20 ethoxylate uncapped surfactant with oleyl 20E ethoxylate surfactants with hexanoyl, n-octanoyl or 2-ethyl hexanoyl ester caps as adjuvants for the herbicide nicosulfuron were tested in a glasshouse using the same method as for ‘Example 1’ but against just one weed species and at 0.2% w/v tital adjuvant concentration. The weed species and its BBCH growth stage at spraying was Chenopodium album (CHEAL; growth stage 15).
# [2] = test system: Digitaria sanguinalis (DIGSA); test: Glasshouse adjuvancy test for nicosulfuron on DIGSA; type: in vivo
# Protocol: as §1, with “ether. The biological efficacies of blends of oleyl 20 ethoxylate and oleyl 20EO ethoxylate with a benzoate cap as adjuvants for the herbicide nicosulfuron were tested in a glasshouse using the same method as for ‘Example 1’ but against just two weed species and with just 0.2% w/v total adjuvant concentration. The weed species and their BBCH growth stage at spraying HI were Chenopodium album (CHEAL; growth stage 13-15) and Digitaria sanguinalis (DIGSA; growth stage 14-22).” for “ether.”
# [3] = De-gelling temperature of aqueous surfactant blends by low shear rheology (Bohlin Gemini rheometer, storage modulus vs temperature); type: physicochemical
# Protocol: The temperatures at which blends of capped and uncapped surfactants de-gel were determined by standard low shear rheology with a Bohlin™ Gemini rheometer. The storage modulus (G′) at 1 Hz was determined at a strain of 0.001-0.002 in a standard C14 cup and bob geometry over a temperature range of 5-70° C., the exact range depending on the de-gelling point of the sample. Plots of storage modulus versus temperature were constructed and the de-gelling temperature was taken to be the point at which the modulus begins to fall rapidly from its high value in the gelled state (typically ca. 10^5 Pa) down to the final value in the de-gelled state (less than 10 Pa). Blends of surfactants were prepared at from 25 to 40% w/w total surfactant concentration in water. Samples were left in an oven at 55° C. for several days to ensure that the mixtures were homogeneous. Samples were placed in the C14 cup and the samples were de-gelled by raising the temperature in the rheometer, the bob was then inserted and the sample was then cooled at 1° C./min, whilst the storage modulus was regularly recorded during the cooling. Once the final temperature had been reached (i.e. when the sample had gelled), the temperature was then increased again and the modulus again recorded. The de-gelling temperature was determined from the increasing temperature cycle.
# Degelling temperatures—the measurements relied on the same method as for ‘Example 1’ but just at 30% w/w total surfactant concentration.
# De-gelling temperatures were measured using the same method as in Example 1.
# (§2) This example provides de-gelling, cloud point and adjuvancy data for dodecyl 23 ethoxylate with n-hexyl cap and hexadecyl 20 ethoxylate with n-hexyl cap Cloud points were measured as described in example 1 for 1% aqueous solutions of the capped and uncapped surfactants both individually and as blends (see Table 30). Degelling temperatures were also measured as outlined in example 1 for 25, 30, 35 and 40% aqueous solutions of the capped and uncapped surfactants both individually and as blends (see Table 31).
# (§3) This example provides de-gelling, cloud point and adjuvancy data for oleyl 20 ethoxylate with n-butyl, n-pentyl or benzyl ether caps end capped oleyl 20 ethoxylate. Cloud points were measured as described in example 1 for 1% aqueous solutions of the capped and uncapped surfactants both individually and as blends. Degelling temperatures were also measured as outlined in example 1 for 25, 30, 35 and 40% aqueous solutions o of the capped and uncapped surfactants both individually and as blends.
# [4] = Cloud point measurement (absorbance at 500 nm as a function of temperature); type: physicochemical
# Protocol: Consistent with the standard method for measuring the cloud point of surfactants, the cloud point of each of the above blends was measured at a total concentration of 1% w/w in water using a Perkin Elmer spectrophotometer fitted with a PTP6 temperature controller. The absorbance of the solution at 500 nm wavelength was determined as a function of temperature. The cloud point was recorded as the onset of a rapid increase in absorbance as the solution began to cloud.
# Cloud point—the measurements relied on the same method as for ‘Example 1’
# Cloud points—were measured using the same method as in Example 1.
# as §2, §3
# [5] = test system: Avena fatua (AVEFA); test: Glasshouse adjuvancy test for pinoxaden on AVEFA; type: in vivo; details: pinoxaden 15 g ai/ha; total surfactant 0.2% w/v; 21 days; Example 9, growth stage 12
# Protocol: The efficacy of 1:1 blends of oleyl 20EO with oleyl 20EO with either n-hexanoyl, n-octanoyl or 2-ethyl hexanoyl ester caps as adjuvants for the herbicide pinoxaden was tested in a glasshouse against two weed species, sown into standard soil in pots and cultivated under controlled conditions in a glasshouse (20/16° C. day/night; 16 hours light; 65% humidity). Pinoxaden was added to the spray tank as a standard EC (emulsifiable concentrate) formulation. The plants were sprayed with pinoxaden at rates of 7.5 or 15 grams of pesticide per hectare using a laboratory track sprayer which delivered the aqueous spray composition at a rate of 200 litres per hectare, using a flat fan nozzle (Teejet 11002VS) at 2 bar. The spray solutions also contained the oleyl 20EO alone or in the 1:1 blends with the capped surfactants. The adjuvants were added to the spray solution at a total surfactant rate of 0.2% w/v. All spray solutions also contained 10% w/w of iso-propanol. The weed species and their BBCH growth stage at spraying were Avena fatua (AVEFA; growth stage 13) and Setaria viridis (SETVI; growth stage 13). Each spray test was replicated three times. The test plants were then grown in a glasshouse under controlled conditions (20/16° C. day/night; 16 hours light; 65% humidity) and watered twice a day. The efficacy of the herbicide was assessed visually and expressed as a percentage of the leaf area killed. Samples were assessed at a time period of 21 days following application.
# Dodecyl 23EO and hexadecyl 20EO were capped with an n-hexyl ether cap. The efficacy of 1:1 blends of these with their uncapped counterparts were tested as adjuvants for the herbicide pinoxaden was tested in a glasshouse against two weed species, sown into standard soil in pots and cultivated under controlled conditions in a glasshouse (20/16° C. day/night; 16 hours light; 65% humidity). Pinoxaden was added to the spray tank as a standard EC (emulsifiable concentrate) formulation. The plants were sprayed with pinoxaden at a.i. rates of 7.5 or 15 grams per hectare using a laboratory track sprayer which delivered the aqueous spray composition at a rate of 200 litres per hectare, using a flat fan nozzle (Teejet 11002VS) at 2 bar. The spray solutions tested included the capped and uncapped alone or in the 1:1 blends with the capped surfactants. The adjuvants were added to the spray solution at a total surfactant rate of 0.2% w/v. All spray solutions also contained 10% w/w of iso-propanol. The weed species and their BBCH growth stage at spraying was Avena fatua (AVEFA; growth stage 12). Each spray test was replicated three times. The test plants were then grown in a glasshouse under controlled conditions (20/16° C. day/night; 16 hours light; 65% humidity) and watered twice a day. The efficacy of the herbicide was assessed visually and expressed as a percentage of the leaf area killed. Samples were assessed at a time period of 21 days following application.
# Oleyl 20EO was capped with -butyl, n-pentyl and n-benzyl caps. The efficacy of 1:1 blends of these with their uncapped counterparts were tested as adjuvants for the herbicide pinoxaden was tested in a glasshouse against two weed species, sown into standard soil in pots and cultivated under controlled conditions in a glasshouse (20/16° C. day/night; 16 hours light; 65% humidity). Pinoxaden was added to the spray tank as a standard EC (emulsifiable concentrate) formulation. The plants were sprayed with pinoxaden at a.i. rates of 7.5 or 15 grams per hectare using a laboratory track sprayer which delivered the aqueous spray composition at a rate of 200 litres per hectare, using a flat fan nozzle (Teejet 11002VS) at 2 bar. The spray solutions tested included the capped and uncapped alone or in the 1:1 blends with the capped surfactants. The adjuvants were added to the spray solution at a total surfactant rate of 0.2% w/v. All spray solutions also contained 10% w/w of iso-propanol.
# [6] = dose response, nicosulfuron 15 g ai/ha, adjuvant 0%
# [7] = dose response, nicosulfuron 60 g ai/ha, adjuvant 0%
molecule,measurement,setting,value
COc1cc(OC)nc(NC(=O)NS(=O)(=O)c2ncccc2C(=O)N(C)C)n1 [nicosulfuron],Mean control,[1]; [6],4.0%
same,Mean control,[1]; [7],8.3%
same,Mean control,[2]; [6],4.0%
same,Mean control,[2]; [7],33.3%
CCCCCCCC/C=C\CCCCCCCCOCCOCCOCCOCCOCCOCCOCCOCCOCCOCCOCCOCCOCCOCCOCCOCCOCCOCCOCCOCCOCc1ccccc1 [Oleyl 20EO n-benzyl ether],De-gelling temperature,"[3]; total surfactant concentration 25% w/w, Table 35",<5 °C
same,De-gelling temperature,"[3]; total surfactant concentration 30% w/w, Table 35",<5 °C
same,De-gelling temperature,"[3]; total surfactant concentration 35% w/w, Table 35",5 °C
same,De-gelling temperature,"[3]; total surfactant concentration 40% w/w, Table 35",15.1 °C
same,Cloud point,"[4]; 1% aqueous solutions, Table 34",38.7 °C
same,Mean control,[5],89.3%
"CCCCCCCC/C=C\CCCCCCCCOCCOCCOCCOCCOCCOCCOCCOCCOCCOCCOCCOCCOCCOCCOCCOCCOCCOCCOCCOCCOC(=O)CCCCC [Oleyl 20EO n-hexanoyl ester, oleyl 20EO n-hexanoyl ester]",Degelling temperature,"[3]; total surfactant concentration 40% w/w, Table 18",13.6 °C
same,Cloud point,"[4]; 1%, Table 20",28.0 °C
"CCCCCCCC/C=C\CCCCCCCCOCCOCCOCCOCCOCCOCCOCCOCCOCCOCCOCCOCCOCCOCCOCCOCCOCCOCCOCCOCCOC(=O)CCCCCCC [Oleyl 20EO n-octanoyl ester, oleyl 20EO n-octanoyl ester]",De-gelling temperature,"[3]; 40% w/w, Table 19",16.5 °C
"CCCCCCCC/C=C\CCCCCCCCOCCOCCOCCOCCOCCOCCOCCOCCOCCOCCOCCOCCOCCOCCOCCOCCOCCOCCOCCOCCOC(=O)c1ccccc1 [Oleyl 20EO benzoate, oleyl 20 ethoxylate benzoate]",De-gelling temperature,"[3]; 30% w/w total surfactant concentration, Table 15",<3.8 °C
same,Cloud point,"[4]; 1%, Table 15",27.3 °C
same,Mean control,"[1]; nicosulfuron 15 g ai/ha, 0.2% w/v total adjuvant, Example 3, growth stage 13-15",75.0%
same,Mean control,"[1]; nicosulfuron 60 g ai/ha, 0.2% w/v total adjuvant, Example 3, growth stage 13-15",81.7%
same,Mean control,"[2]; nicosulfuron 15 g ai/ha, 0.2% w/v total adjuvant, Example 3, growth stage 14-22",96.7%
same,Mean control,"[2]; nicosulfuron 60 g ai/ha, 0.2% w/v total adjuvant, Example 3, growth stage 14-22",99.3%
Oleyl 20EO n-butyl ether,Mean control,[5],96.3%
